Data reported in PMC8552062, “Contributions of UDP-Glucuronosyltransferases to Human Hepatic and Intestinal Metabolism of Ticagrelor and Inhibition of UGTs and Cytochrome P450 Enzymes by Ticagrelor and its Glucuronidated Metabolite” (Frontiers in Pharmacology, 2021).

Experiments:
[1] = biological target: T1, recombinant human UGT1A10 (Homo sapiens, UniProt Q9HAW8); assay: Ticagrelor glucuronidation screen, recombinant human UGT1A10; type: in vitro ADME; conditions: 10 μM ticagrelor
T1 construct: purchased BD Gentest; host or cells: baculovirus-infected insect cells
Description: (§1) Ticagrelor glucuronidation was investigated in an in vitro incubation system by using HLM, HIM, and recombinant human UGTs. The incubation system consisted of enzyme sources (HLM, HIM, or human recombinant UGTs), various concentrations of ticagrelor (dissolved in 50% methanol, 1% v/v, 1, 2, 5, 10, 20, 50, 100, 200, 500 μM of final concentration), alamethicin (50 μg/mg protein), 5 mM MgCl2, 100 mM tris-HCL buffer (pH 7.4), and 5 mM UDPGA in a total volume of 100 μl. Alamethicin is a pore-forming polypeptide used to activate UGTs in HLM and HIM ([Fisher et al., 2000]). Preliminary studies were conducted to determine the optimal protein concentrations and incubation times. Linear conditions of ticagrelor-O-Glu formation from ticagrelor, i.e., HLM, 0.2 mg of protein/ml and 60 min, HIM, 0.2 mg of protein/ml and 60 min, and recombinant human UGTs, 0.2 mg of protein/ml and 60 min were selected. The incubation mixture without UDPGA was placed on ice for 15 min to activate UGT by alamethicin. After pre-incubation for 5 min at 37°C, the reactions were started by the addition of UDPGA. After another 60 min of incubation at 37°C, the reaction was terminated by adding 100 μl of acetonitrile containing internal standard (diazepam). The mixture vortexed for 2 min and then centrifuged at 14,000 rpm for 10 min at 4°C. […]

[2] = biological target: T2, recombinant human UGT2B17 (Homo sapiens, UniProt O75795); assay: Ticagrelor glucuronidation screen, recombinant human UGT2B17; type: in vitro ADME; conditions: 10 μM ticagrelor
T2 construct: purchased BD Gentest; host or cells: baculovirus-infected insect cells
Description: as §1

[3] = design: method as in Husted et al., 2006; conditions: humans, 100 mg b.i.d.; ref Husted et al., 2006; cited from earlier work
UGT1A1 = biological target: T3, UGT1A1 (Homo sapiens, UniProt P22309); assay: Ticagrelor glucuronidation by recombinant human UGT1A1; type: in vitro ADME; design: purchased BD Gentest; host or cells: baculovirus-infected insect cells; conditions: recombinant human UGT1A1, pH 7.4
T3 sequence (P22309 26-533): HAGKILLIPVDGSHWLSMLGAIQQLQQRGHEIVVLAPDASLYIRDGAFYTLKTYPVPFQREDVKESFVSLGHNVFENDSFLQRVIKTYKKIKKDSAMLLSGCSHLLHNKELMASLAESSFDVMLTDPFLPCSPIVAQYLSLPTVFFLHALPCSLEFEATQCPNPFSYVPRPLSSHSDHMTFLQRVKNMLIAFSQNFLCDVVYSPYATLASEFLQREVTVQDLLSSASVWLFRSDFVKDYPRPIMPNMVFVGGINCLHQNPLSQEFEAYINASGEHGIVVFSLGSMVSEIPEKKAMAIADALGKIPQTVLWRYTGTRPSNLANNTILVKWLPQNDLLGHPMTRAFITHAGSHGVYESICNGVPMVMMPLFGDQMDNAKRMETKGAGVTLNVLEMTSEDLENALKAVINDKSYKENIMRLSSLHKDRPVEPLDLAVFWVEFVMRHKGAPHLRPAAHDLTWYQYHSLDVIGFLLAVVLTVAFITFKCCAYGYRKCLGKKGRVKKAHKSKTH
Description: as §1, with “alamethicin.” for “alamethicin. After pre-incubation for 5 min at 37°C, the reactions were started by the addition of UDPGA. After another 60 min of incubation at 37°C, the reaction was terminated by adding 100 μl of acetonitrile containing internal standard (diazepam). The mixture vortexed for 2 min and then centrifuged at 14,000 rpm for 10 min at 4°C.”
Kinetic analyses were performed using the mean values of triplicate determinations with either pooled HLM, HIM, or recombinant human UGTs. All data were analyzed by nonlinear regression analysis using the GraphPad Prism 6 (GraphPad Software Inc., CA, United States). […] Intrinsic clearance (CLint) was calculated by dividing Vmax by Km.

T2 sequence (O75795 24-530): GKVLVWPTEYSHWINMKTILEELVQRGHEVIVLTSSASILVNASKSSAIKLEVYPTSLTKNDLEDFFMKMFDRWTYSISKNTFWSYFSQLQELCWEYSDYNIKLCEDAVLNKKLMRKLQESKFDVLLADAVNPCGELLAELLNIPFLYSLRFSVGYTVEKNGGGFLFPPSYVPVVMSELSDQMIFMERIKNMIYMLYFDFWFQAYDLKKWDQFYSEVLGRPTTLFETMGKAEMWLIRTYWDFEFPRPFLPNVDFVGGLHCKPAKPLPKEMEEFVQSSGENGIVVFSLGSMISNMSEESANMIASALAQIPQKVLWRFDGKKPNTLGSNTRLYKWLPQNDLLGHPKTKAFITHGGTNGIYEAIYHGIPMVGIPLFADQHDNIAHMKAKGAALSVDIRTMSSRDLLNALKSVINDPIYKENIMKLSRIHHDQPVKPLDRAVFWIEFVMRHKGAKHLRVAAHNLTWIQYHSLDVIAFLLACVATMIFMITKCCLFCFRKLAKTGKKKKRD
T1 sequence (Q9HAW8 26-530): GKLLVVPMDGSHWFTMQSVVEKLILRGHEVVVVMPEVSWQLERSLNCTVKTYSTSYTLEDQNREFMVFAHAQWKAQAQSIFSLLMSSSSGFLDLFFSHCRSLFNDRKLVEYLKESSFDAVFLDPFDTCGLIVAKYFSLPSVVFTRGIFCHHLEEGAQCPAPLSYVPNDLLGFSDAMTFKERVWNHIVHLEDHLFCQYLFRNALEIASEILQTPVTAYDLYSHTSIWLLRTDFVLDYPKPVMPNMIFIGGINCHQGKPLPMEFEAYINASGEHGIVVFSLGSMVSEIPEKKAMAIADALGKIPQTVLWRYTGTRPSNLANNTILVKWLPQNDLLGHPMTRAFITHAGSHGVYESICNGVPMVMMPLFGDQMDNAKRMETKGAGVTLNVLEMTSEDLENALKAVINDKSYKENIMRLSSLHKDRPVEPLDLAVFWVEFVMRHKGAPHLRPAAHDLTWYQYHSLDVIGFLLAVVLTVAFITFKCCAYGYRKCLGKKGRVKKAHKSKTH

SMILES: CCCSc1nc(N[C@@H]2C[C@H]2c2ccc(F)c(F)c2)c2nnn([C@@H]3C[C@H](OCCO)[C@@H](O)[C@H]3O)c2n1 [Ticagrelor]
- glucuronidation activity for ticagrelor [1]: no glucuronidation activities
- glucuronidation activity for ticagrelor [2]: no glucuronidation activities
- steady-state maximal plasma concentration (Cmax) [3]: 810 ng/mL
- microsomal CLint (UGT1A1): 0.03 µL/min/mg
